Measured values published in patent US20140249097A1, “Inhibition of HIF-1 activation for Anti-Tumor and Anti-Inflammatory responses” (priority 2010, published 2014).
Like-named read-outs stand apart in the source and are kept apart here. Peptide text beside a SMILES is read from it. * marks the point of attachment. Cbz = O=C(OCc1ccccc1)*

Tests used:
[1] = system: 4T1 (murine mammary adenocarcinoma); experiment: Tumor growth delay, radiotherapy plus L-NAME, 4T1; type: in vivo, mice; settings: 4T1 tumors, 3×6 Gy, L-NAME in drinking water
Description: (§1) Female NIH Swiss nude mice, C57BL/6 mice were purchased from the National Cancer Institute (NCI; Fredrick, Md., United States of America). Mice with a genetic disruption of the inducible […] gene (C57BL/6 iNOS^−/−) were obtained from the Jackson Laboratory (Bar Harbor, Me., United States of America). Female BALB/c mice were obtained from Charles River Laboratories (Raleigh, N.C., United States of America). Animals were maintained and cared for in accordance with the Duke University Institutional Animal Care and Use Committee guidelines. For tumor implantation, 4T1 tumors were grown in nude mice or in syngeneic BALB/c mice, and B16F10 melanoma in syngeneic C57BL/6 or iNOS^−/− mice. About 5×10^5 wild type- or luciferase reporter gene-transfected tumor cells were injected subcutaneously (s.c.) into mice in 50 μl of PBS solution in the hind legs of ketamine/xylazine-anesthetized mice. When the tumors reached 6-8 mm in diameter, mice were randomly assigned to experimental groups. To image the luciferase activity, single dose of 6 Gy X-ray was given to the tumor on the right leg and this day was set as day 0. The luciferase activity was imaged everyday or every other day for ten days. For the tumor growth delay assay, radiotherapy was employed in its clinical mode: tumors were treated with 3 fractions of 6 Gy every other day from day 0.

tumor vasculature = experiment: CD31 staining of tumor vasculature; type: in vivo, mice; settings: L-NAME in conjunction with radiotherapy, tumors excised day 10, 4T1 and B16F10
Method: Vessel staining was performed on tumor cryoslices by using the VECTASTAIN® ABC and the NOVARED™ kits from Vector Laboratories (Burlingame, Calif., United States of America), according to the manufacturer's protocol. The primary anti-CD31 antibody (Santa Cruz Biotechnology, Santa Cruz, Calif.) was labeled with a secondary biotinylated anti-rabbit antibody (Jackson ImmunoResearch Labs, Inc.). Slices were counterstained using Harris' hematoxilin. Vascular density was determined by counting CD31-positive structures in 5 random fields per tumor.

B16F10 (murine melanoma) = experiment: Tumor growth delay, radiotherapy plus L-NAME, B16F10; type: in vivo, mice; settings: B16F10 tumors, 3×6 Gy, L-NAME in drinking water
Description: as §1

HIF-1α [2] = type: cell-based, murine
C533S-ODD-luc = C533S-ODD-luc reporter in 4T1 cells in vitro; type: cell-based, murine
STAT1 = experiment: Western blotting of STAT1 and phospho-STAT1 in 4T1ODD-luc cells; type: cell-based, mouse; settings: 48 hours post-treatment
Method: (§2) Cell nuclear proteins were extracted using the NucBuster protein extraction kit (Novagen, Gibbstown, N.J., United States of America). Total cell lysates or cell nuclear extractions were quantified using a protein assay reagent (Bio-Rad). Equal amounts of protein sample were separated by Bis-HCl gel (Bio-Rad) and transferred to a […] Immun-Blot PVDF membrane (Bio-Rad).

iNOS = experiment: Western blotting of iNOS in 4T1ODD-luc cells; type: cell-based, mouse; settings: for inhibition of iNOS expression in doxorubicin-treated cells / doxorubicin-induced iNOS upregulation: with doxorubicin; for inhibition of iNOS expression in doxorubicin-treated cells: 24 h; for doxorubicin-induced iNOS upregulation: 48 h; for basal level of iNOS expression: without doxorubicin, 24 h and 48 h, 10 μg/ml 1400W or 15 μM EGCG
Method: as §2

HIF-1α [3] = experiment: Western blotting of HIF-1α in 4T1ODD-luc cells; type: cell-based, mouse; settings: 4T1ODD-luc cells, post-treatment day 2
Method: as §2

HIF-1α [4] = experiment: Western blotting of HIF-1α in MCF-7 cells; type: cell-based, human; settings: MCF-7 cells, post-treatment day 3
Method: as §2

4T1ODD-luc cells = experiment: Cell Titer-Glo cell viability assay; settings: 10 μg/ml 1400W or 15 μM EGCG with 1 μg/ml doxorubicin, to day 3
Description: Cell viability was quantified by Cell Titer-Glo luminescent cell viability assay (Promega, Madison, Wis., United States of America) daily until day 3. The daily cell viability was normalized to the initial cell viability on day 0 within each group.

nitric oxide = experiment: Flow cytometry of intracellular nitric oxide (DAF-FM) in 4T1ODD-luc cells; type: cell-based, mouse; settings: 10 μg/ml 1400W or 15 μM EGCG with 1 μg/ml doxorubicin, 48 hours
Method: To detect intracellular nitric oxide levels, 1×10^6 4 T1ODD-luc cells were plated per 10-cm cell culture dish with 8 ml of cell culture medium. Doxorubicin (1 μg/ml and 5 μg/ml) or an equal volume of control solvent was added into the cell culture medium the next day and treatment continued for 48 hours. […] Equal amounts of solvent were added for the control group. To quantify intracellular nitric oxide, a single cell suspension was made after trypsinization. 2 ml of 5 uM nitric oxide-specific probe DAF-FM diacetate (4-amino-5-methylamino-2′,7′-difluorofluorescein diacetate) (Invitrogen) were incubated with each cell sample at room temperature in darkness for 30 minutes. The cells were washed with PBS and centrifuged to remove the excess DAF-FM diacetate probe. The cells were resuspended into 500 ul of phenol-free DMEM and incubated for another 20 minutes for complete intracellular deacetylation of the probe. The mean fluorescence intensity of the deacetylated DAF-FM reacted with nitric oxide was quantified by FACSCalibur flow cytometer in FITC channel (Becton Dickinson, Franklin Lakes, N.J., United States of America).

SMILES: COC(=O)[C@@H](N)CCCNC(=N)N[N+](=O)[O-] [L-NAME, Nω-nitro-L-arginine methyl ester]
- tumor growth delay, therapeutic efficacy of radiotherapy with L-NAME [1]: significantly enhanced the therapeutic efficacy of radiotherapy
- tumor vasculature (CD31+ vascular density) (tumor vasculature): significantly reduced tumor vasculature
- tumor growth delay, therapeutic efficacy of radiotherapy with L-NAME (B16F10 (murine melanoma)): significantly enhanced the therapeutic efficacy of radiotherapy

SMILES: [Cl-].[Cl-].[Co+2] [CoCl2]
- luminescence arising from ODD-luc reporter gene expression (HIF-1α [2]): rose significantly
- C533S-ODD-luc induction (C533S-ODD-luc): significant inductions, similar to wild-type

SMILES: O=C(O[C@@H]1Cc2c(O)cc(O)cc2O[C@@H]1c1cc(O)c(O)c(O)c1)c1cc(O)c(O)c(O)c1 [EGCG, epigallocatechin gallate]
- doxorubicin-induced upregulation of STAT1 expression and activation (STAT1): potently suppressed the doxorubicin-induced upregulation of STAT1 expression and activation
- inhibition of iNOS expression in doxorubicin-treated cells (iNOS): not obvious
- doxorubicin-induced iNOS upregulation (iNOS): successfully suppressed the doxorubicin-induced iNOS upregulation
- basal level of iNOS expression (iNOS): suppressed the basal level of iNOS expression
- doxorubicin-induced normoxic HIF-1α accumulation (HIF-1α [3]): successfully suppressed the doxorubicin-induced normoxic HIF-1α accumulation
- doxorubicin-induced normoxic HIF-1α accumulation (HIF-1α [4]): successfully suppressed the doxorubicin-induced normoxic HIF-1α accumulation
- effect of combination on cytotoxicity of doxorubicin (cell viability) (4T1ODD-luc cells): did not attenuate the cytotoxicity of doxorubicin
- doxorubicin-induced increase of intracellular NO (nitric oxide): significantly suppressed the doxorubicin-induced increase of intracellular NO

SMILES: CC(=N)NCc1cccc(CN)c1 [1400W, N-(3-(aminomethyl)benzyl)acetamidine]
- doxorubicin-induced upregulation of STAT1 expression and activation (STAT1): potently suppressed the doxorubicin-induced upregulation of STAT1 expression and activation
- inhibition of iNOS expression in doxorubicin-treated cells (iNOS): not obvious
- doxorubicin-induced iNOS upregulation (iNOS): successfully suppressed the doxorubicin-induced iNOS upregulation
- basal level of iNOS expression (iNOS): suppressed the basal level of iNOS expression
- effect of combination on cytotoxicity of doxorubicin (cell viability) (4T1ODD-luc cells): did not attenuate the cytotoxicity of doxorubicin
- doxorubicin-induced increase of intracellular NO (nitric oxide): significantly suppressed the doxorubicin-induced increase of intracellular NO

SMILES: N[C@@H](CCC(=O)N[C@@H](CSN=O)C(=O)NCC(=O)O)C(=O)O [GSNO, S-nitrosoglutathione]
- C533S-ODD-luc expression induced by GSNO (C533S-ODD-luc; 4T1 cells, GSNO 1 mM): almost absent

SMILES: CC1(C)N([O])C(c2ccc(C(=O)[O-])cc2)=[N+]([O-])C1(C)C.[K+] [carboxy-PTIO, potassium 2-(4-carboxyphenyl)-4,4,5,5-tetramethylimidazoline-1-oxyl-3-oxide]
- effect on HIF-1α activation (ODD-luc) by GSNO (HIF-1α [2]): effectively suppressed HIF-1α activation by GSNO

SMILES: CC(C)C[C@@H](C=O)NC(=O)[C@H](CC(C)C)NC(=O)[C@H](CC(C)C)NC(=O)OCc1ccccc1 [MG132] (Cbz-Leu-Leu-Leu-aldehyde)
- luminescence arising from ODD-luc reporter gene expression (HIF-1α [2]; 4T1 cells, CoCl2 240 μM for 12 hrs, MG132 10 μM for 12 hrs, vs background): rose significantly
